Experimental data as given in patent US9833497B2, “Human originated EGF domain proteins and use of the same” (CHENGDU SOURCEBIO LIMITED-LIABILITY COMPANY, priority 2013, dated 2017).

Tests used:
Type in all cases: cell-based
E. coli DH5α = assay: Antibacterial activity: MIC and growth curve against E. coli DH5α in 96-well plate; conditions: minimal inhibitory concentration against E. coli DH5α; 96-well plate, 5×10^5 CFU/mL, 37° C., judged after 8 h
Summary of the method: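 Log-phase bacteria (OD600 ~0.5) resuspended in LB at 5×10^5 CFU/mL, exposed to recombinant protein at 50, 25, 12.5 μg/mL final in triplicate, 37 °C shaking at 175 rpm. OD600 read every 30 min; MIC is lowest concentration showing no growth.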

E. coli BL21 = assay: MIC against Gram-negative bacteria: E. coli BL21; conditions: E. coli BL21; 5×10^5 CFU/mL; 10 h cultivation at 37° C.
Summary of the method: (§1)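 MIC = lowest concentration of recombinant protein showing no growth. Test proteins: purified human-derived EGF domain proteins, two-fold dilution series, three wells per concentration; inoculum 5×10^5 CFU/mL in LB; incubation 37° C with shaking at 175 rpm.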

Pseudomonas aeruginosa = assay: MIC against Gram-negative bacteria: Pseudomonas aeruginosa; conditions: Pseudomonas aeruginosa; 5×10^5 CFU/mL; 10 h cultivation at 37° C.
Summary of the method: as §1

Klebsiella pneumonia = assay: MIC against Gram-negative bacteria: Klebsiella pneumonia; conditions: Klebsiella pneumonia; 5×10^5 CFU/mL; 10 h cultivation at 37° C.
Summary of the method: as §1

Enterobacter cloacae = assay: MIC against Gram-negative bacteria: Enterobacter cloacae; conditions: Enterobacter cloacae; 5×10^5 CFU/mL; 10 h cultivation at 37° C.
Summary of the method: as §1

Aeromonas hydrophila = assay: MIC against Gram-negative bacteria: Aeromonas hydrophila; conditions: Aeromonas hydrophila; 5×10^5 CFU/mL; 10 h cultivation at 37° C.
Summary of the method: as §1

Citrobacter diversus = assay: MIC against Gram-negative bacteria: Citrobacter diversus; conditions: Citrobacter diversus; 5×10^5 CFU/mL; 10 h cultivation at 37° C.
Summary of the method: as §1

Moraxella catarrhalis = assay: MIC against Gram-negative bacteria: Moraxella catarrhalis; conditions: Moraxella catarrhalis; 5×10^5 CFU/mL; 10 h cultivation at 37° C.
Summary of the method: as §1

Proteus mirabilis = assay: MIC against Gram-negative bacteria: Proteus mirabilis; conditions: Proteus mirabilis; 5×10^5 CFU/mL; 10 h cultivation at 37° C.
Summary of the method: as §1

Proteus vulgaris = assay: MIC against Gram-negative bacteria: Proteus vulgaris; conditions: Proteus vulgaris; 5×10^5 CFU/mL; 10 h cultivation at 37° C.
Summary of the method: as §1

Serratia marcescens = assay: MIC against Gram-negative bacteria: Serratia marcescens; conditions: Serratia marcescens; 5×10^5 CFU/mL; 10 h cultivation at 37° C.
Summary of the method: as §1

Row | Substance | MIC (E. coli DH5α) | MIC against E. coli BL21 (E. coli BL21) | MIC against P. aeruginosa (Pseudomonas aeruginosa) | MIC against K. pneumonia (Klebsiella pneumonia) | MIC against E. cloacae (Enterobacter cloacae) | MIC against A. hydrophila (Aeromonas hydrophila) | MIC against C. diversus (Citrobacter diversus) | MIC against M. catarrhalis (Moraxella catarrhalis) | MIC against P. mirabilis (Proteus mirabilis) | MIC against P. vulgaris (Proteus vulgaris) | MIC against S. marcescens (Serratia marcescens)
1 | PRT1395 (DCPRNCHGNGECVSGVCHCFPGFLGADCA; listed as Homo sapiens) | 12.5 µg/mL | 25 µg/mL | 12.5 µg/mL | 25 µg/mL | 12.5 µg/mL | 100 µg/mL | 12.5 µg/mL | 12.5 µg/mL | 12.5 µg/mL | 12.5 µg/mL | 25 µg/mL
2 | PRT1396 (LGADCAKAACPVLCSGNGQYSKGTCQCYSGWKGAECD; listed as Homo sapiens) | 12.5 µg/mL | 12.5 µg/mL | 12.5 µg/mL | 12.5 µg/mL | 25 µg/mL | 25 µg/mL | 12.5 µg/mL | 25 µg/mL | 12.5 µg/mL | 25 µg/mL | 12.5 µg/mL
3 | PRT1397 (PMNQCIDPSCGGHGSCIDGNCVCSAGYKGEHCE; listed as Homo sapiens) | 50 µg/mL | 25 µg/mL | 12.5 µg/mL | 50 µg/mL | 12.5 µg/mL | 50 µg/mL | 25 µg/mL | 12.5 µg/mL | 25 µg/mL | 50 µg/mL | 25 µg/mL
4 | PRT1398 (EVDCLDPTCSSHGVCVNGECLCSPGWGGLNCEL; listed as Homo sapiens) | 25 µg/mL | 25 µg/mL | 12.5 µg/mL | 25 µg/mL | 50 µg/mL | 25 µg/mL | 12.5 µg/mL | 25 µg/mL | 12.5 µg/mL | 25 µg/mL | 12.5 µg/mL
5 | PRT1399 (ARVQCPDQCSGHGTYLPDTGLCSCDPNWMGPDCS; listed as Homo sapiens) | 12.5 µg/mL | 12.5 µg/mL | 12.5 µg/mL | 12.5 µg/mL | 25 µg/mL | 12.5 µg/mL | 25 µg/mL | 12.5 µg/mL | 25 µg/mL | 12.5 µg/mL | 25 µg/mL
6 | PRT1400 (VCSVDCGTHGVCIGGACRCEEGWTGAACD; listed as Homo sapiens) | 50 µg/mL | 12.5 µg/mL | 50 µg/mL | 12.5 µg/mL | 25 µg/mL | 50 µg/mL | 12.5 µg/mL | 50 µg/mL | 12.5 µg/mL | 12.5 µg/mL | 25 µg/mL
